Patent publication US8901116B2, “Method for treating pain, anxiety or depression using carbamoyloxy alkanoyl piperazine compound” (SK Biopharmaceuticals Co., Ltd., priority 2007, dated 2014)
Counter-ions that a name gives are not always drawn.

Tests used:
Type in all cases: in vivo
[1] = tested on: male ICR mouse; assay: Acetic acid-induced writhing test in mouse; conditions: po, p.o, acetic acid i.p. 1 hour after dosing, writhing counted for 10 minutes, read-out: Writhing Test Suppression of pain response
Experimental: An acetic acid-induced writhing test is one of models for measuring an analgesic effect of drugs. A test material dissolved in a suitable vehicle was orally administered to a male ICR mouse weighing 30 to 35 g at an amount of 10 mg/kg. After 1 hour of the oral administration, […] of an aqueous 0.8% acetic acid solution was intraperitoneally injected into the male ICR mouse to induce the abdominal pain of the male ICR mouse. Right after the administration of acetic acid, the male ICR mouse was put into an empty cage, and the number of writhing behaviors of the mice was counted for 10 minutes. The term “writhing” represents a reflex action in which the mouse overtly extends its abdomen by stretching its hind legs due to the abdominal pain. The analgesic effect of the test material is represented by the ‘suppression of pain response’ {[(Writhing number of vehicle-administered group−Writhing number of Test material—administered group)/(Writhing number of Solvent-administered group)]×100%}.

[2] = tested on: male ICR mouse; assay: Hot plate test in mouse; conditions: po, p.o, 1 hour after dosing, hot plate 55° C., read-out: Hot Plate Test Increase in latency of avoidance response
Experimental: A hot plate test is one of representative models for measuring an analgesic effect of drugs. A test material dissolved in a suitable vehicle was orally administered to a male ICR mouse weighing 25 to 30 g at an amount of 30 mg/kg. After 1 hour of the oral administration, the mouse was put on a hot plate (55° C.). A latency was recorded from the time right after a mouse is put on a hot plate to the time when avoidance responses (flinching, licking, jumping, etc.) to pain are observed from forefeet or rear legs of the mouse. The analgesic effect of the test material is represented by the ‘Increase in latency of avoidance response’ {[(Latency of avoidance response to pain of Test material-administered group−Latency of avoidance response to pain of vehicle-administered group)/(Latency of avoidance response to pain of Solvent-administered group)]×100%}.

[3] = tested on: male ICR mouse; assay: Elevated plus maze (EPM) test in mouse; conditions: po, p.o, 1 hour after dosing, 5 minutes observation, read-out: Elevated Plus Maze Change index in Open-Arm Time
Description: Elevated plus maze (EPM) is one of representative models that examine an anti-anxiety activity of a test material. Equipment used for an EPM test has a crossroad shape raised in a high position off the ground, and is configured in such a cliff shape that both sides of one road are protected with high walls and the other road is free from the wall. Among them, the road in the cliff shape is referred to as an ‘open arm,’ and the road protected by the walls is referred to as a ‘close arm.’ In this case, a level of the anxiety of a mouse may be measured by determining in which arm the mouse stays longer. In general, the mouse stays longer in the close arm than the open arm, but a mouse treated with a medicine showing an anti-anxiety effect stays relatively longer in the open arm. A test material dissolved in a suitable vehicle was orally administered to a male ICR mouse weighing 20 to 25 g at an amount of 10 mg/kg. After 1 hour of the oral administration, the mouse was put on the center of an EPM equipment to measure how long the mouse stays in the open arm within a time range of 5 minutes. The anti-anxiety effect of the test material is represented by the ‘Change index in Open-Arm Time’ {[(open arm duration in test material-administered group−open arm duration in vehicle-administered group)/(open arm duration in vehicle administered group)]×100%}.

[4] = tested on: male ICR mouse; assay: Head twitch potentiation induced by 5-HTP (5-HTP potentiation test) in mouse; conditions: po, 0.5 h, p.o, 5-HTP 80 mg/kg + Carbidopa 25 mg/kg i.p. 30 minutes after dosing, head twitches counted for 2 minutes, negative = 5-HT2A antagonist, read-out: 5-HTP Potentiation Increase rate in Head Twitch No.
Experimental: When 5-hydroxy-L-tryptophan (5-HTP) is administered into a mouse, a head twitch phenomenon is observed since serotonin is increasingly secreted in the mouse. […] By using this principle, it is possible to search an effect of the representative antidepressant agent. A test material dissolved in a suitable vehicle was orally administered to a male ICR mouse weighing 20 to 25 g at an amount of 30 mg/kg. After 30 minutes of the oral administration, 5-HTP (80 mg/kg) and 5-HTP peripheral decarbozylase inhibitor ‘Carbidopa’ (25 mg/kg) were intraperitoneally administered to the mouse. After 30 minutes of the intraperitoneal administration, the mouse was put into an observation cage, and head twitches of the mouse were counted for 2 minutes. The anti-depression effect of the test material is represented by the ‘Increase rate in Head Twitch No.’ {[(Head Twitch No. of Test material-administered group−Head Twitch No. of vehicle-administered group)/(Head Twitch No. of vehicle-administered group)]×100%}. […] In addition to the selective serotonin reuptake inhibitor (SSRI) that has been widely used as an antidepressant agent in the clinical fields, it was tested that 5-HT2A antagonists such as nefazodone and trazodone also have an antidepressant effect.

Compound | inhibition in vivo at 10 mg/kg [1] [%] | change in vivo at 30 mg/kg [2] [%] | change in vivo at 10 mg/kg [3] [%] | change in vivo at 30 mg/kg [4] [%]
NC(=O)OC(CC(=O)N1CCN(c2ccc(Cl)c(Cl)c2)CC1)c1ccccc1 (stereo not shown) [Example 3, carbamic acid 3-[4-(3,4-dichloro-phenyl)-piperazin-1-yl]-3-oxo-1-phenyl-propyl ester] | 65 | 38.5 | 9.7 | 54.5
NC(=O)O[C@H](CC(=O)N1CCN(c2ccc(O)cc2)CC1)c1ccccc1 [Example 83, (R)-carbamic acid 3-[4-(4-hydroxy)-phenylpiperazin-1-yl]-3-oxo-1-phenyl-propyl ester] | 44.5 | 89.3 | 52.7 | 40.9
NC(=O)OC(CCC(=O)N1CCN(c2ccc(Cl)c(Cl)c2)CC1)c1ccccc1 (stereo not shown) [Example 40, carbamic acid 4-[4-(3,4-dichloro-phenyl)-piperazin-1-yl]-4-oxo-1-phenyl-butyl ester] | 11.1 | 27.8 | 68.8 | 311
NC(=O)O[C@@H](CC(=O)N1CCN(c2ccc(O)cc2)CC1)c1ccccc1 [Example 84, (S)-carbamic acid 3-[4-(4-hydroxy)-phenylpiperazin-1-yl]-3-oxo-1-phenyl-propyl ester] | 32 | 13.5 | 65.6 | -37.5
COc1ccc(N2CCN(C(=O)CC(OC(N)=O)c3ccc(C(F)(F)F)cc3)CC2)cc1OC (stereo not shown) [Example 35, carbamic acid 3-[4-(3,4-dimethoxy-phenyl)-piperazin-1-yl]-3-oxo-1-(4-trifluoromethyl-phenyl)-propyl ester; hydrochloride] | 33.8 | 32.8 | 44 | 64.3
NC(=O)OC(CC(=O)N1CCN(c2ccccc2)CC1)c1ccc(C(F)(F)F)cc1 (stereo not shown) [Example 31, carbamic acid 3-oxo-3-(4-phenyl-piperazin-1-yl)-1-(4-trifluoromethyl-phenyl)-propyl ester] | 21.6 | 20.1 | 35.6 | 10
NC(=O)OC(CC(=O)N1CCN(c2ccccc2)CC1)c1ccc(Cl)c(Cl)c1 (stereo not shown) [Example 53, carbamic acid 1-(3,4-dichloro-phenyl)-3-oxo-3-(4-phenyl-piperazin-1-yl)-propyl ester] | 28.5 | 10.6 | -17.7 | 50
NC(=O)O[C@@H](CC(=O)N1CCN(c2ccc(F)c(F)c2)CC1)c1ccccc1 [Example 64, (S)-carbamic acid 3-[4-(3,4-difluoro-phenyl)-piperazin-1-yl]-3-oxo-1-phenyl-propyl ester] | 41.1 | 33 | 125 | 134
NC(=O)O[C@H](CC(=O)N1CCN(c2ccc(F)cc2)CC1)c1ccccc1 [Example 62, (R)-carbamic acid 3-[4-(4-fluoro-phenyl)-piperazin-1-yl]-3-oxo-1-phenyl-propyl ester] | 66.7 | 13.8 | 2.7 | 0.8
NC(=O)OC(CC(=O)N1CCN(c2cccc(Cl)c2Cl)CC1)c1ccccc1 (stereo not shown) [Example 12, carbamic acid 3-[4-(2,3-dichloro-phenyl)-piperazin-1-yl]-3-oxo-1-phenyl-propyl ester] | 37 | 46.8 | 41.1 | 10
CC(C)(C)c1ccc(N2CCN(C(=O)CC(OC(N)=O)c3ccccc3)CC2)cc1 (stereo not shown) [Example 17, carbamic acid 3-[4-(4-tert-butyl-phenyl)-piperazin-1-yl]-3-oxo-1-phenyl-propyl ester] | 25.3 | 29.4 | 34 | 10
NC(=O)OC(CC(=O)N1CCN(c2cccc(F)c2)CC1)c1ccccc1 (stereo not shown) [Example 30, carbamic acid 3-[4-(3-fluoro-phenyl)-piperazin-1-yl]-3-oxo-1-phenyl-propyl ester] | 9.2 | 27.1 | 102 | 40
NC(=O)O[C@H](CC(=O)N1CCN(c2ccc(F)cc2F)CC1)c1ccccc1 [Example 82, (R)-carbamic acid 3-[4-(2,4-difluoro)-phenylpiperazin-1-yl]-3-oxo-1-phenyl-propyl ester] | 34.5 | 65.7 | 62.6 | -20
COc1ccc(N2CCN(C(=O)CC(OC(N)=O)c3ccc([N+](=O)[O-])cc3)CC2)cc1OC (stereo not shown) [Example 36, carbamic acid 3-[4-(3,4-dimethoxy-phenyl)-piperazin-1-yl]-1-(4-nitro-phenyl)-3-oxo-propyl ester; hydrochloride] | 42 | 20.5 | 35.3 | 93.8
NC(=O)OC(c1ccccc1)C(F)(F)C(=O)N1CCN(c2ccccc2)CC1 (stereo not shown) [Example 47, carbamic acid 2,2-difluoro-3-oxo-1-phenyl-3-(4-phenyl-piperazin-1-yl)-propyl ester] | 28.8 | 27.2 | 21.4 | 22.5
Cc1ccc(N2CCN(C(=O)CC(OC(N)=O)c3ccccc3)CC2)cc1 (stereo not shown) [Example 4, carbamic acid 3-oxo-1-phenyl-3-(4-p-tolyl-piperazin-1-yl)-propyl ester] | 74.6 | 34.1 | 41.1 | -7.1
NC(=O)O[C@@H](CC(=O)N1CCN(c2ccc(Cl)cc2)CC1)c1ccccc1 [Example 85, (S)-carbamic acid 3-[4-(4-chloro)-phenylpiperazin-1-yl]-3-oxo-1-phenyl-propyl ester] | 52 | 25.3 | 37 | 222
NC(=O)OC(CC(=O)N1CCN(C(c2ccc(F)cc2)c2ccc(F)cc2)CC1)c1ccccc1 (stereo not shown) [Example 21, carbamic acid 3-{4-[bis-(4-fluoro-phenyl)-methyl]-piperazin-1-yl}-3-oxo-1-phenyl-propyl ester] | 32.5 | 51.4 | 67.5 | -7
NC(=O)O[C@@H](CC(=O)N1CCN(c2ccc(Cl)c(Cl)c2)CC1)c1ccccc1 [Example 66, (S)-carbamic acid 3-[4-(3,4-dichloro-phenyl)-piperazin-1-yl]-3-oxo-1-phenyl-propyl ester] | 62.5 | 27.8 | 50.6 | -39.5
